Assay [1] concerns human neutrophils. Description: Chemotaxis assay (modified Boyden chamber), neutrophils. In kind it is cell-based. To be noted: concentrations less than 10 μM. The procedure:
(§1) FIGS. 6A and 6B show chemotactic effect of peptides. Assays were performed using a modified Boyden chamber assay, as described in the Examples. Isolated human neutrophils (A) or monocytes (B) (1×10^6 cells/ml in serum free RPMI) were added to the upper wells of a 96-well chemotaxis chamber and migration across a 3 μm pore size (5 μm for monocytes) polycarbonate membrane was assessed after 2 hrs incubation at 37° C. The numbers of migrated cells were determined by counting them in a high power field (400×). Results are presented as means±S.E. of three independent experiments each performed in duplicate.
Chemotaxis assays were performed using multiwell chambers (Neuroprobe Inc., Gaithersburg, Md.) (Bae et al. Blood. 2001. 97: 2854-2862). Briefly, prepared human monocytes were suspended in RPMI at a concentration of 1×10^6 cells/ml, and 25 μl of the suspension was then placed onto the upper well of a chamber separated by a 5 μm polyhydrocarbon filter (3 μm pores size not polyvinylpyrrolidone coated, as is needed for neutrophils) from peptides or N-formyl-methionyl-leucyl-phenylalanine (fMLF) in the lower well. […] Stained cells were counted in five randomly chosen high power fields (HPF) (400×) (Bae et al. Blood. 2001. 97: 2854-2862).

The next assay has as its target T1, FPRL1 (Homo sapiens, UniProt P25090).
T1 construct: expressed in transfected cells; host or cells: RBL-2H3
T1 sequence (P25090 1-351): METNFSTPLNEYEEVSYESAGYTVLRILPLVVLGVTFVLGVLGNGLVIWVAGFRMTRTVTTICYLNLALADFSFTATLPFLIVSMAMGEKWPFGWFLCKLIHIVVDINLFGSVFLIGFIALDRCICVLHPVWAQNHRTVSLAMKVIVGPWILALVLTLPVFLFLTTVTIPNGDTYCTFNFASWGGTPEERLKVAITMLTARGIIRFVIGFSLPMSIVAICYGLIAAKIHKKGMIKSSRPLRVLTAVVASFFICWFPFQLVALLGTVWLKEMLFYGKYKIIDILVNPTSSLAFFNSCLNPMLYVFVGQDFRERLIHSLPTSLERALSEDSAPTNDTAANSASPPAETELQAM
Description: [Ca2+]i increase in FPRL1-expressing RBL-2H3 cells. In kind it is cell-based. To be noted: 10 μM of each peptide (FIG. 7). The procedure:
(§2) U937 (human histiocytic lymphoma cells), HL60 (human promyelocytic leukemia cells), Raw 264.7 (mouse macrophage), Jurkat (human acute T cell leukemia), PC12 (rat adrenal pheochromocytoma cells), 3Y1 (Rat embryonic fibroblasts), 3T3L1 (preadipocytes), and NCI-H292 (human mucoepidermoid pulmonary carcinoma cells) were obtained from the American Type Culture Collection (Rockville, Md.) and maintained as recommended. FPR- or FPRL1 expressing RBL-2H3 cells were cultured as described previously (He et al. J. Immunol. 2000. 165: 4598-4605). Cells were maintained at about 1×10^6 cells/ml under standard incubator conditions (humidified atmosphere, 95% air, 5% CO2, at 37° C.). HL60 cells were induced to differentiate into the granulocyte phenotype by adding dimethylsulfoxide (DMSO) (final concentration 1.25%, v/v) for 4 days to the culture medium, as described previously (Itoh et al. Blood. 1998. 92: 1432-1441).
(§3) The level of [Ca^2+]i was determined using Grynkiewicz's method using fura-2/AM (Grynkiewicz et al. J. Biol. Chem. 1985. 260: 3440-3550). Briefly, prepared cells were incubated with 3 μM of fura-2/AM at 37° C. for 50 min in serum-free RPMI 1640 medium under continuous stirring. 2×10^6 cells were aliquoted for each assay in Ca^2+ free Locke's solution (154 mM NaCl, 5.6 mM KCl, 1.2 mM MgCl2, 5 mM HEPES, pH 7.3, 10 mM glucose, and 0.2 mM EGTA). Fluorescence changes were measured at the dual excitation wavelength of 340 nm and 380 nm, and the calculated fluorescence ratio was translated into [Ca^2+]i.

For a further assay, the system named is human monocytes. The assay is described as follows: Chemotaxis assay (modified Boyden chamber), monocytes. In kind it is cell-based. The note with it: FIG. 6B; control peptide at concentrations less than 10 μM. The procedure: as §1
Chemotaxis assays were performed using multiwell chambers (Neuroprobe Inc., Gaithersburg, Md.) (Bae et al. Blood. 2001. 97: 2854-2862). Briefly, prepared human monocytes were suspended in RPMI at a concentration of 1×10^6 cells/ml, and 25 μl of the suspension was then placed onto the upper well of a chamber separated by a 5 μm polyhydrocarbon filter (3 μm pores size not polyvinylpyrrolidone coated, as is needed for neutrophils) from peptides or N-formyl-methionyl-leucyl-phenylalanine (fMLF) in the lower well. After incubation for 2 hours (90 minutes for neutrophils) at 37° C., non-migrated cells were removed by scraping, and cells that migrated across the filter were dehydrated, fixed, and stained with hematoxylin (Sigma, St. Louis, Mo.). Stained cells were counted in five randomly chosen high power fields (HPF) (400×) (Bae et al. Blood. 2001. 97: 2854-2862).

The subject of assay [2] is differentiated HL60 cells. The assay is described as follows: [Ca2+]i increase in fura-2 loaded dHL60 cells. In kind it is cell-based, human. As for the experimental part:
as §2, §3

The test system of assay [3] is differentiated HL60 cells. The assay is described as follows: Arachidonic acid (AA) release in [3H]AA-labeled dHL60 cells. In kind it is cell-based, human. As for the experimental part: as §2
For the initial screening of the PS-SPCLs, we measured the AA release stimulating activity of each peptide pool. Cultured dHL60 cells (10^7 cells/ml) were pre-labeled with 0.5 μCi/ml of (^3H)-AA in RPMI 1640 medium containing 10% FBS for 90 min at 37° C. in a humidified incubator supplied with 95% air and 5% CO2, as described previously (Bae et al. J. Immunol. 2000. 164: 4089-4096). The labeled cells were then washed twice with serum-free RPMI 1640 and incubated in RPMI 1640 medium containing 0.1% fatty acid-free BSA for 15 min at 37° C. After discarding the medium, the cells were stimulated with various concentrations of peptide for the indicated times. Radioactivity in the medium and of collected cells was determined with a liquid scintillation counter. When investigating the effects of inhibitors, cells were preincubated with the indicated concentrations of each inhibitor or vehicle for 15 min prior to stimulation.

A further assay concerns ERK. Description: ERK phosphorylation in dHL60 cells (anti-phospho-ERK immunoblot). In kind it is cell-based, human. As for the experimental part:
Each sample (30 μg of protein) was subjected to 8% SDS-PAGE, and phosphorylated ERK was quantified by immunoblot analysis with anti-phospho-ERK antibody. The results shown are from a single experiment representative of at least three independent experiments.
Extracellular signal regulated protein kinase (ERK) is a well-known intracellular enzyme that mediates diverse cellular responses (Sugden et al. Cell Signal. 1997. 9: 337-351). […] To compare the intracellular signaling involving these 4 peptides, dHL60 cells were pretreated either with LY294002 (50 μM), GF109203X (5 μM), or PD98059 (50 μM) or left untreated as a control. After being incubated for the indicated periods (15 minutes for LY294002 and GF109203X, 60 minutes for PD98059), the cells were stimulated with 1 μM of each peptide for 5 minutes.

Another assay has as its target T2, FPR (Homo sapiens, UniProt P21462).
T2 construct: expressed in transfected cells; host or cells: RBL-2H3
T2 sequence (P21462 1-350): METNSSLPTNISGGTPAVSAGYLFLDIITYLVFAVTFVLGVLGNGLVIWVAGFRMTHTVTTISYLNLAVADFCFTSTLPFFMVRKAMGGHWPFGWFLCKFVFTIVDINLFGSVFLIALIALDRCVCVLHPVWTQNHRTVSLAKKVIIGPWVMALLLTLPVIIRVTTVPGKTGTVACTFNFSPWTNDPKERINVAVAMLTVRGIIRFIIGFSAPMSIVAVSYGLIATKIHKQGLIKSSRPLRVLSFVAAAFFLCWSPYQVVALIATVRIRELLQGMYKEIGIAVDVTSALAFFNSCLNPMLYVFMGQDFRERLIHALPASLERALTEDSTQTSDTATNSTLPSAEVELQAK
The assay is described as follows: [Ca2+]i increase in FPR-expressing RBL-2H3 cells. In kind it is cell-based. To be noted: data not shown. As for the experimental part: as §2, §3

For assay [4], the system named is undifferentiated HL60 cells. Description: [Ca2+]i increase in undifferentiated HL60 cells. In kind it is cell-based, human. The procedure:
as §2, §3

Assay [5] deals with human neutrophils. Description: Superoxide generation (cytochrome c reduction) in human neutrophils. To be noted: 1 μM of peptide, cytochrome c reduction. In kind it is cell-based. The procedure:
Peripheral blood leukocyte concentrates were donated by the Ulsan Red Cross Blood Center (Ulsan, Korea). PBMCs were separated on a Histopaque-1077 gradient. After two washings with HBSS without Ca^2+ and Mg^2+, the PBMCs were suspended in 10% FBS containing RPMI and incubated for 60 min at 37° C. to let the monocytes attach to the culture dish. Cells were washed 5 times with warmed RPMI medium to remove lymphocytes, and then the attached monocytes were collected, as described previously (Bae et al. J. Leukoc. Biol. 1999. 65: 241-248). Human neutrophils were isolated according to standard procedures; i.e., dextran sedimentation, hypotonic lysis of erythrocytes, and using a medium lymphocyte separation gradient, as described previously (Seo et al. J. Immunol. 1997. 158: 1895-1901). Isolated human leukocytes were then used promptly.
We determined superoxide anion generation by measuring cytochrome c reduction using a microtiter 96 well plate ELISA reader (Bio-Tekinstruments, EL312e, Winooski, Vt.) as described previously (Bae et al. Blood. 2001. 97: 2854-2862). Human neutrophils (1×10^6 cells/100 μl of RPMI 1640 medium per well of a 96-well plate) were preincubated with 50 μM of cytochrome c at 37° C. for 1 min and then incubated with the indicated peptide concentrations. Superoxide generation was determined from change in light absorption at 550 nm over 5 minutes at 1 min intervals.

Where no end group is shown, it is not given here.

As to LFMYHP [reference compound], the “Cellular chemotaxis in neutrophils (in words)” value in the assay on human neutrophils [1] is “did not induce”. Moreover, in the assay with FPRL1, the “[Ca^2+]i increase in FPRL1-expressing RBL-2H3 cells” value is “not to be able to induce calcium increase”. Besides, in the assay on human monocytes, the “Cellular chemotaxis in human monocytes (in words)” value is “did not induce”.

On to RKYYYM-NH2 [Peptide P18], for which the “Concentration of maximal activity, [Ca^2+]i increase” value in assay [2] (dHL60 cells, data not shown) is on record as “approximately 3 μM”. The “[Ca^2+]i” value in assay [2] (differentiated HL60 cells, fura-2, 1 μM of peptide) amounted to 150 ± 14.5 nM. Besides, the “AA release stimulating activity (in words)” value in assay [3] (dHL60 cells, 10 μM) is “most potent”. In assay [3] (dHL60 cells, inhibitor pretreatment 15 min, 1 μM peptide), the “Effect of cPLA2-specific inhibitors AACOCF3 and MAFP on peptide-induced AA release” value is given as “blocked”. In assay [3] (differentiated HL60 cells, 10 μM of peptide), the “Folds of increase (% of total), arachidonic acid release” value came out at 2.61 ± 0.295 folds. Moreover, in the assay on ERK (dHL60 cells (FIG. 9)), the “Phosphorylation level of ERK” value is on record as “dramatic increase”. Also, the “Effect of GF109203X (PKC) on peptide-induced ERK phosphorylation” value in the assay with ERK (dHL60 cells, GF109203X (5 μM) 15 minutes, 1 μM peptide 5 minutes) is given as “completely blocked”. For the same substance, the “Effect of LY294002 (PI3K) on peptide-induced ERK phosphorylation” value in the assay on ERK (dHL60 cells, LY294002 (50 μM) 15 minutes, 1 μM peptide 5 minutes) was “not by LY294002”. Besides, the “Effect of PD98059 (MEK) on peptide-induced ERK phosphorylation” value in the assay on ERK (dHL60 cells, PD98059 (50 μM) 60 minutes, 1 μM peptide 5 minutes) is listed as “partially blocked”. Moreover, the “Time of maximal ERK activation after stimulation” value in the assay with ERK (dHL60 cells, data not shown) stood at 5 min. The “[Ca^2+]i increase in FPRL1-expressing RBL-2H3 cells” value with FPRL1 is reported as “induced calcium increase”. The “[Ca^2+]i in FPR-expressing RBL-2H3 cells / ligand for FPR” value with FPR is recorded as “not for FPR”. Also, in [4] (peptides 10 μM (FIG. 8)), the “[Ca^2+]i increase in undifferentiated HL60 cells” value is recorded as “dramatically induced”. Moreover, the “Effect of PTX on peptide-stimulated calcium signaling” value in [4] (undifferentiated HL60 cells, data not shown) was “partially inhibited”. Also, in the assay with human neutrophils [5], the Superoxide production was 28.4 ± 3.21 nmole/10^6 cells.

Values taken from US7622551B2, “Leukocyte stimulating peptides” (POSCO, priority 2004, dated 2009).
